Biological target: RET (Homo sapiens (Human), UniProt P07949)
Test: RET enzyme assay (CisBio HTRF kinEASE)
Assay type: biochemical

RET, sequence (P07949 29-1114): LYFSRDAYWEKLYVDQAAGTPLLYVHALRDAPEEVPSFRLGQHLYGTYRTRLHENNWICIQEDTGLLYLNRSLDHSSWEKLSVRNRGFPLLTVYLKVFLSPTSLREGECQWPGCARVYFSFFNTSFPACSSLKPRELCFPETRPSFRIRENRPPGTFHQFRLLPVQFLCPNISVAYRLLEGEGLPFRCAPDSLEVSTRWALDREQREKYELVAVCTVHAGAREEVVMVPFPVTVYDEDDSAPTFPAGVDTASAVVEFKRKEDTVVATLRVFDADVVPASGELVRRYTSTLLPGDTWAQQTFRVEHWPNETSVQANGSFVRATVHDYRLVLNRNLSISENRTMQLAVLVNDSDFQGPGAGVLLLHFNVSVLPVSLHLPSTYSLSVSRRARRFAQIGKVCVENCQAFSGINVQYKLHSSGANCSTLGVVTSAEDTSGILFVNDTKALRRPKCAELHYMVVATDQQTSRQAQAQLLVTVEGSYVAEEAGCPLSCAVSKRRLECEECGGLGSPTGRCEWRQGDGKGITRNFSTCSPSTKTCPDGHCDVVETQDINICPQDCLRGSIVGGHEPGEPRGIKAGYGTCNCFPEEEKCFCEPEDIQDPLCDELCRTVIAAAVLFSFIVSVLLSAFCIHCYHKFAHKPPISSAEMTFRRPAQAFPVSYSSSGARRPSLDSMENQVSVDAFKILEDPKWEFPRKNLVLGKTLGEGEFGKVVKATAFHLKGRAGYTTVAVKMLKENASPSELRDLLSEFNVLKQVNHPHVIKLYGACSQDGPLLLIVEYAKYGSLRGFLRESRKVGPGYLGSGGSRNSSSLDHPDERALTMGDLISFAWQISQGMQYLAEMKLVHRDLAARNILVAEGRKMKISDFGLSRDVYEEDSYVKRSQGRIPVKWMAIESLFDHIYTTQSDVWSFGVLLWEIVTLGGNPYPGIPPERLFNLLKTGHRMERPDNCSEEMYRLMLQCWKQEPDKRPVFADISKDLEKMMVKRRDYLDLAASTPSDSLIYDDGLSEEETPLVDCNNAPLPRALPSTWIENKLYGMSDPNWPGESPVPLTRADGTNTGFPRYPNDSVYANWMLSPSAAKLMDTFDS

CC(C)(C)n1nc(-c2cc3ncccc3[nH]2)c2c(N)ncnc21 [1-tert-butyl-3-(1H-pyrrolo[3,2-b]pyridin-2-yl)pyrazolo[3,4-d]pyrimidin-4-amine]
activity in the assays described in the Examples section: did not exhibit the desired activity

Nc1ncnc2c1c(-c1[nH]c3ncccc3c1Cl)nn2CC(=O)O [2-(4-amino-3-(3-chloro-1H-pyrrolo[2,3-b]pyridin-2-yl)-1H-pyrazolo[3,4-d]pyrimidin-1-yl)acetic acid]
activity in the assays described in the Examples section: did not exhibit the desired activity

CC(C)CCn1nc(-c2[nH]c3ccccc3c2Cl)c2c(N)ncnc21 [3-(3-Chloro-1H-indol-2-yl)-1-isopentyl-1H-pyrazolo[3,4-d]pyrimidin-4-amine]
activity in the assays described in the Examples section: did not exhibit the desired activity

Nc1ncnc2c1c(-c1[nH]c3ccccc3c1Cl)nn2CC1CCNC1 (centres unmarked) [3-(3-chloro-1H-indol-2-yl)-1-(pyrrolidin-3-ylmethyl)-1H-pyrazolo[3,4-d]pyrimidin-4-amine]
activity in the assays described in the Examples section: did not exhibit the desired activity

Cn1nc(-c2[nH]c3ncccc3c2Cl)c2c(N)ncnc21 [Example 65, 3-(3-Chloro-1H-pyrrolo[2,3-b]pyridin-2-yl)-1-methyl-pyrazolo[3,4-d]pyrimidin-4-amine]
activity in the assays described in the Examples section: did not exhibit the desired activity

— patent publication US11661423B2, “Heterocyclic compounds as RET kinase inhibitors” (Cancer Research Technology Limited, priority 2016, dated 2023)
